pIC50: −log10 of the molar value.
Key:
human orexin-2 receptor = human orexin-2 receptor (Homo sapiens (Human), UniProt O43614); assay: FLIPR Ca2+ Flux Assay, CHO cells expressing orexin-2 receptor; assay type: cell-based; settings: 70 pM Ala-6,12 orexin-A agonist, read-out: hOX2R FLIPR IC50
Description: The utility of the compounds in accordance with the present invention as orexin receptor OX1R and/or OX2R antagonists may be readily determined without undue experimentation by methodology well known in the art, including the “FLIPR Ca^2+ Flux Assay” (Okumura et al., Biochem. Biophys. Res. Comm. 280:976-981, 2001). In a typical experiment the OX1 and OX2 receptor antagonistic activity of the compounds of the present invention was determined in accordance with the following experimental method. For intracellular calcium measurements, Chinese hamster ovary (CHO) cells expressing the rat orexin-1 receptor or the human orexin-2 receptor, are grown in Iscove's modified DMEM containing 2 mM L-glutamine, […], 1% hypoxanthine-thymidine supplement, 100 U/ml penicillin, 100 μg/ml streptomycin and 10% heat-inactivated fetal calf serum (FCS). The cells are seeded at 20,000 cells/well into Becton-Dickinson black 384-well clear bottom sterile plates coated with poly-D-lysine. All reagents were from GIBCO-Invitrogen Corp. The seeded plates are incubated overnight at 37° C. and 5% CO2. Ala-6,12 human orexin-A as the agonist is prepared as a 1 mM stock solution in 1% bovine serum albumin (BSA) and diluted in assay buffer (HBSS containing 20 mM HEPES, 0.1% BSA and 2.5 mM probenecid, pH7.4) for use in the assay at a final concentration of 70 pM. Test compounds are prepared as 10 mM stock solution in DMSO, then diluted in 384-well plates, first in DMSO, then assay buffer. On the day of the assay, cells are washed 3 times with 100 μl assay buffer and then incubated for 60 min (37° C., 5% CO2) in 60 μl assay buffer containing 1 μM Fluo-4AM ester, 0.02% pluronic acid, and 1% BSA. The dye loading solution is then aspirated and cells are washed 3 times with 100 μl assay buffer. 30 μl of that same buffer is left in each well. Within the Fluorescent Imaging Plate Reader (FLIPR, Molecular Devices), test compounds are added to the plate in a volume of 25 μl, incubated for 5 min and finally 25 μl of agonist is added. Fluorescence is measured for each well at 1 second intervals for 5 minutes and the height of each fluorescence peak is compared to the height of the fluorescence peak induced by 70 pM Ala-6,12 orexin-A with buffer in place of antagonist. For each antagonist, IC50 value (the concentration of compound needed to inhibit 50% of the agonist response) is determined. Alternatively, compound potency can be assessed by a radioligand binding assay (described in Bergman et. al. Bioorg. Med. Chem. Lett. 2008, 18, 1425-1430) in which the inhibition constant (Ki) is determined in membranes prepared from CHO cells expressing either the OX1 or OX2 receptor. The intrinsic orexin receptor antagonist activity of a compound which may be used in the present invention may be determined by these assays.

hOX1R = hOX1R (Homo sapiens, UniProt O43613); assay: FLIPR Ca2+ Flux Assay, CHO cells expressing orexin-1 receptor; assay type: cell-based; settings: 70 pM Ala-6,12 orexin-A agonist

Sequence of human orexin-2 receptor (O43614 whole entry): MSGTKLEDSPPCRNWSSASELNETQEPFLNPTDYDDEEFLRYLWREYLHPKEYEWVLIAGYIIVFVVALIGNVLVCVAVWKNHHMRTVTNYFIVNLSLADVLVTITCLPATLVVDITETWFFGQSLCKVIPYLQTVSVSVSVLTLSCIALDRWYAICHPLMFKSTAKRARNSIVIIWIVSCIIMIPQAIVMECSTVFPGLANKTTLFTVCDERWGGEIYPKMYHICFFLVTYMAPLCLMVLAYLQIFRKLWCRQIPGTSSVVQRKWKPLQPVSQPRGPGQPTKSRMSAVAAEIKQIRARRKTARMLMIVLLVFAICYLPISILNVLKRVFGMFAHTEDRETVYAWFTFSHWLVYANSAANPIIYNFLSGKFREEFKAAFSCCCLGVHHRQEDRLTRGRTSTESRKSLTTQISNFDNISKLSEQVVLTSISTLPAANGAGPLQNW

Row | SMILES | pIC50 (human orexin-2 receptor) | pIC50 (hOX1R)
1 | C[C@@H]1CC[C@@H](Oc2nccc3c2C(=O)OC3(C)C)CN1C(=O)c1ccccc1-c1ncccn1 [Example 22, 1,1-Dimethyl-4-{[(3R,6R)-6-methyl-1-{[2-(pyrimidin-2-yl)phenyl]carbonyl}piperidin-3-yl]oxy}furo[3,4-c]pyridin-3(1H)-one] | 7.12 | 5.49
2 | C[C@@H]1CC[C@@H](Oc2nccc3c2C(=O)OC3(C)C)CN1C(=O)c1ccc(F)cc1-c1ncccn1 [Example 23, 4-({(3R,6R)-1-[(4-fluoro-2-pyrimidin-2-ylphenyl)carbonyl]-6-methylpiperidin-3-yl}oxy)-1,1-dimethylfuro[3,4-c]pyridin-3(1H)-one] | 6.38 | 5.00
3 | C[C@@H]1CC[C@@H](Oc2nccc3c2C(=O)OC3(C)C)CN1C(=O)c1cc(F)ccc1-c1ncccn1 [Example 24, 4-({(3R,6R)-1-[(5-fluoro-2-pyrimidin-2-ylphenyl)carbonyl]-6-methylpiperidin-3-yl}oxy)-1,1-dimethylfuro[3,4-c]pyridin-3(1H)-one] | 7.14 | 5.00
4 | C[C@@H]1CC[C@@H](Oc2nccc3c2C(=O)OC3(C)C)CN1C(=O)c1ccsc1-c1ncccn1 [Example 25, 1,1-dimethyl-4-(((3R,6R)-6-methyl-1-(2-(pyrimidin-2-yl)thiophene-3-carbonyl)piperidin-3-yl)oxy)furo[3,4-c]pyridin-3(1H)-one] | 7.36 | 5.04
5 | C[C@@H]1CC[C@@H](Oc2nccc3c2C(=O)OC3(C)C)CN1C(=O)c1c(F)cccc1-c1ncccn1 [Example 26, 4-({(3R,6R)-1-[(2-fluoro-6-pyrimidin-2-ylphenyl)carbonyl]-6-methylpiperidin-3-yl}oxy)-1,1-dimethylfuro[3,4-c]pyridin-3(1H)-one] | 6.96 | 5.00
6 | C[C@@H]1CC[C@@H](Oc2nccc3c2C(=O)OC3(C)C)CN1C(=O)c1cccc(F)c1-c1ncccn1 [Example 27, 4-({(3R,6R)-1-[(3-fluoro-2-pyrimidin-2-ylphenyl)carbonyl]-6-methylpiperidin-3-yl}oxy)-1,1-dimethylfuro[3,4-c]pyridin-3(1H)-one] | 6.86 | 5.00
7 | C[C@@H]1CC[C@@H](Oc2nccc3c2COC3=O)CN1C(=O)c1ccccc1-n1nccn1 [Example 28, 4-{[(3R,6R)-6-Methyl-1-{[2-(2H-1,2,3-triazol-2-yl)phenyl]carbonyl}piperidin-3-yl]oxy}furo[3,4-c]pyridin-1(3H)-one] | 7.80 | 5.33
8 | C[C@@H]1CC[C@@H](Oc2nccc3c2COC3=O)CN1C(=O)c1ccsc1-n1nccn1 [Example 29, 4-{[(3R,6R)-6-methyl-1-{[2-(2H-1,2,3-triazol-2-yl)thiophen-3-yl]carbonyl}piperidin-3-yl]oxy}furo[3,4-c]pyridin-1(3H)-one] | 7.80 | 5.50
9 | C[C@@H]1CC[C@@H](Oc2nccc3c2COC3=O)CN1C(=O)c1cscc1-n1nccn1 [Example 30, 4-{[(3R,6R)-6-methyl-1-{[4-(2H-1,2,3-triazol-2-yl)-thiophen-3-yl]car-bonyl}piperidin-3-yl]oxy}furo[3,4-c]pyridin-1(3H)-one] | 7.59 | 5.00
10 | C[C@@H]1CC[C@@H](Oc2nccc3c2COC3=O)CN1C(=O)c1ccccc1C1(C#N)CC1 [Example 31, 1-[2-({(2R,5R)-2-methyl-5-[(1-oxo-1,3-dihydrofuro[3,4-c]pyridin-4-yl)oxy]-piperidin-1-yl}-carbonyl)-phenyl]cyclo-propane-carbonitrile] | 7.92 | 5.75
11 | C[C@@H]1CC[C@@H](Oc2nccc3c2COC3=O)CN1C(=O)c1ccc(F)cc1-n1nccn1 [Example 32, 4-{[(3R,6R)-1-{[4-fluoro-2-(2H-1,2,3-triazol-2-yl)phenyl]-carbonyl}-6-methyl-piperidin-3-yl]oxy}furo[3,4-c]pyridin-1(3H)-one] | 7.82 | 5.08
12 | C[C@@H]1CC[C@@H](Oc2nccc3c2COC3=O)CN1C(=O)c1ccccc1CS(C)(=O)=O [Example 33, 4-{[(3R,6R)-6-methyl-1-({2-[(methyl-sulfonyl)methyl]-phenyl}carbonyl)-piperidin-3-yl]oxy}furo[3,4-c]pyridin-1(3H)-one] | 7.70 | ≤ 5.00
13 | C[C@@H]1CC[C@@H](Oc2nccc3c2COC3=O)CN1C(=O)c1ccccc1-n1ncnn1 [Example 34, 4-{[(3R,6R)-6-methyl-1-{[2-(2H-tetrazol-2-yl)phenyl]carbonyl}-piperidin-3-yl]oxy}-furo[3,4-c]pyridin-1(3H)-one] | 7.52 | 5.00
14 | C[C@@H]1CC[C@@H](Oc2nccc3c2COC3=O)CN1C(=O)c1cscc1-c1ncccn1 [Example 35, 4-({(3R,6R)-6-methyl-1-[(4-pyrimidin-2-ylthiophen-3-yl)carbonyl]piperidin-3-yl}oxy)furo[3,4-c]pyridin-1(3H)-one] | 7.70 | 5.00
15 | C[C@@H]1CC[C@@H](Oc2nccc3c2COC3=O)CN1C(=O)c1ccccc1-c1ncccn1 [Example 36, 4-({(3R,6R)-6-methyl-1-[(2-pyrimidin-2-ylphenyl)car-bonyl]piperidin-3-yl}oxy)furo[3,4-c]pyridin-1(3H)-one] | 7.70 | 5.51
16 | C[C@@H]1CC[C@@H](Oc2nccc3c2COC3=O)CN1C(=O)c1ccsc1-c1ncccn1 [Example 37, 4-({(3R,6R)-6-methyl-1-[(2-pyrimidin-2-ylthiophen-3-yl)carbonyl]piperidin-3-yl}oxy)furo[3,4-c]pyridin-1(3H)-one] | 7.57 | 5.21
17 | C[C@@H]1CC[C@@H](Oc2cccc3c2C(=O)OC3(C)C)CN1C(=O)c1ccccc1-n1nccn1 [Example 38, 3,3-Dimethyl-7-{[(3R,6R)-6-methyl-1-{[2-(2H-1,2,3-triazol-2-yl)phenyl]carbonyl}piperidin-3-yl]oxy}-2-benzofuran-1(3H)-one] | 6.77 | 5.00
18 | C[C@@H]1CC[C@@H](Nc2nccc3c2C(=O)OC3(C)C)CN1C(=O)c1ccccc1-n1nccn1 [Example 39, 1,1-Dimethyl-4-{[(3R,6R)-6-methyl-1-{[2-(2H-1,2,3-triazol-2-yl)phenyl]carbonyl}piperidin-3-yl]amino}furo[3,4-c]pyridin-3(1H)-one] | 7.31 | 5.23
19 | C[C@@H]1CC[C@@H](Nc2nccc3c2C(=O)OC3)CN1C(=O)c1ccccc1-n1nccn1 [Example 40, 4-{[(3R,6R)-6-Methyl-1-{[2-(2H-1,2,3-triazol-2-yl)phenyl]carbonyl}piperidin-3-yl]amino}furo[3,4-c]pyridin-3(1H)-one] | 6.87 | 5.00
20 | C[C@@H]1CC[C@@H](Nc2nccc3c2C(=O)OC3(C)C)CN1C(=O)c1ccccc1-n1ncnn1 [Example 41, 1,1-Dimethyl-4-{[(3R,6R)-6-methyl-1-{[2-(2H-tetrazol-2-yl)phenyl]carbonyl}piperidin-3-yl]amino}furo[3,4-c]pyridin-3(1H)-one] | 7.82 | 5.00
21 | C[C@@H]1CC[C@@H](Nc2nccc3c2C(=O)OC3(C)C)CN1C(=O)c1ccccc1-c1ncccn1 [Example 42, 1,1-dimethyl-4-({(3R,6R)-6-methyl-1-[(2-pyrimidin-2-ylphenyl)carbonyl]-piperidin-3-yl}amino)furo[3,4-c]pyridin-3(1H)-one] | 7.59 | 5.54
22 | C[C@@H]1CC[C@@H](Nc2nccc3c2C(=O)OC3(C)C)CN1C(=O)c1ccsc1-n1nccn1 [Example 43, 1,1-dimethyl-4-{[(3R,6R)-6-methyl-1-{[2-(2H-1,2,3-triazol-2-yl)thiophen-3-yl]-carbonyl}piperidin-3-yl]amino}-furo[3,4-c]pyridin-3(1H)-one] | 7.72 | 5.00
23 | C[C@@H]1CC[C@@H](Nc2nccc3c2C(=O)OC3(C)C)CN1C(=O)c1ccsc1-c1ncccn1 [Example 44, 1,1-Dimethyl-4-({(3R,6R)-6-methyl-1-[(2-pyrimidin-2-ylthiophen-3-yl)carbonyl]piperidin-3-yl}amino)furo[3,4-c]pyridin-3(1H)-one] | 7.55 | 6.00

Reference: US9556190B2, “Piperidinyloxy lactone orexin receptor antagonists” (MERCK SHARP & DOHME CORP., priority 2013, dated 2017)
